One compound from publication PMC4558166, “Trametinib modulates cancer multidrug resistance by targeting ABCB1 transporter” (Oncotarget, 2015) can be followed below.

pEC50: −log10 of the molar value.

This experiment has as its target ABCB1 (MDR1/P-glycoprotein) (Homo sapiens, UniProt P08183). The experiment can be described thus: Vi-sensitive ATPase stimulation in High Five insect cell membrane vesicles; also rhodamine […]/doxorubicin accumulation in ABCB1-overexpressing cells. In kind it is biochemical.

Sequence of ABCB1 (MDR1/P-glycoprotein) (P08183 whole entry): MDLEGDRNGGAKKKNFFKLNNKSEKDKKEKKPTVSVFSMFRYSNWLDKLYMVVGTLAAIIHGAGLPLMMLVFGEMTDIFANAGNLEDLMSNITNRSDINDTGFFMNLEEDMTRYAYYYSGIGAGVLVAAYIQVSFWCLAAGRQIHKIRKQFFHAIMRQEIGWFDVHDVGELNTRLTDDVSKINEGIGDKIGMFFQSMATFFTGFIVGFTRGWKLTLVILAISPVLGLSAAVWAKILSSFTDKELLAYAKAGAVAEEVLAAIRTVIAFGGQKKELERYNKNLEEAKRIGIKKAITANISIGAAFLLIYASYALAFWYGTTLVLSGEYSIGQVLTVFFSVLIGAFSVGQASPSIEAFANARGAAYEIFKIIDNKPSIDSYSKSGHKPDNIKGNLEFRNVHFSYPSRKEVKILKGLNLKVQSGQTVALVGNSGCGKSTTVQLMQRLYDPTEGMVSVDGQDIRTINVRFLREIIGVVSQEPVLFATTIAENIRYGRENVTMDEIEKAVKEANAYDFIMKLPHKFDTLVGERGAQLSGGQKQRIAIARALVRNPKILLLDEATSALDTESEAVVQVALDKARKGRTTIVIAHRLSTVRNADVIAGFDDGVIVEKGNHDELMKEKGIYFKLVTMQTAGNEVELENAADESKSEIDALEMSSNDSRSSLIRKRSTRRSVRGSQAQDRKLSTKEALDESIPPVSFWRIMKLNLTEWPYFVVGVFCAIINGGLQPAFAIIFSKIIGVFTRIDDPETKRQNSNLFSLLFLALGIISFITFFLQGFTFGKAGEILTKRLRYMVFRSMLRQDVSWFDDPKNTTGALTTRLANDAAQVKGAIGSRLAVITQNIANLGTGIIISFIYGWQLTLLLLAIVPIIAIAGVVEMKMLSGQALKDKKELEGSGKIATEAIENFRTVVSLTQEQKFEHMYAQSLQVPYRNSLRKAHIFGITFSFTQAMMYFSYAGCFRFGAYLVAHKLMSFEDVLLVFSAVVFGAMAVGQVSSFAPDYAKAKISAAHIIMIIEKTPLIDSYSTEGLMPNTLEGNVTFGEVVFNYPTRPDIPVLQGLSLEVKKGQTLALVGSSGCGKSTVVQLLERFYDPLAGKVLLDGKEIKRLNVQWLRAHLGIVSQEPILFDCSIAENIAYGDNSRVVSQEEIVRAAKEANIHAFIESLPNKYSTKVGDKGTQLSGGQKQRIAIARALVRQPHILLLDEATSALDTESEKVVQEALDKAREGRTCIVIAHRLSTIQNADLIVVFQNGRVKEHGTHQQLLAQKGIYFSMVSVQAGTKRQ

In the case of `CC(=O)Nc1cccc(-n2c(=O)n(C3CC3)c(=O)c3c(Nc4ccc(I)cc4F)n(C)c(=O)c(C)c32)c1` [Trametinib], the pEC50 (as a rule, the EC50 on a negative log10 scale, so that one unit is a factor of ten) was 5.99.
